Reference: the NIST ThermoML archive (doi:10.1021/je400272k)

Assay: wn = mass fraction of the nth substance listed
Conditions: Liquid, Vibrating tube method

CCCC[N+](CCCC)(CCCC)CCCC.[Br-] [tetrabutylammonium bromide] + O
mass density [kg/m3]
Conditions	w1 = 0.1	w1 = 0.14	w1 = 0.2	w1 = 0.3	w1 = 0.4
283.15 K, 100 kPa	1008.7	1012.9	1019.9	–	–
285.15 K, 100 kPa	1008.3	1012.6	1019.3	–	–
288.15 K, 100 kPa	1007.6	1011.6	1018.1	1029	1038.5
288.15 K, 1000 kPa	1008	1012.1	1018.6	1029.4	1039
288.15 K, 2000 kPa	1008.4	1012.5	1019	1029.7	1039.4
288.15 K, 3000 kPa	1008.9	1012.9	1019.4	1030.1	1039.7
288.15 K, 4000 kPa	1009.2	1013.3	1019.7	1030.4	1040.1
288.15 K, 5000 kPa	1009.7	1013.7	1020.1	1030.7	1040.4
291.15 K, 100 kPa	1006.7	1010.9	1017	1027.4	1036.7
291.15 K, 1000 kPa	1007.1	1011.2	1017.4	1027.7	1037
291.15 K, 2000 kPa	1007.6	1011.6	1017.8	1028.1	1037.4
291.15 K, 3000 kPa	1008	1012	1018.2	1028.5	1037.8
291.15 K, 4000 kPa	1008.4	1012.4	1018.6	1028.8	1038.1
291.15 K, 5000 kPa	1008.7	1012.7	1018.8	1029.1	1038.4
293.15 K, 100 kPa	1006.2	1010	1016.3	1026.3	1035.3
293.15 K, 1000 kPa	1006.7	1010.4	1016.7	1026.8	1035.7
293.15 K, 2000 kPa	1007	1010.8	–	–	–
